Measurements from US10966426B2, “Herbicidal compositions comprising phenylpyrimidines” (BASF SE, priority 2016, dated 2021).
Values joined by “and” are separate entries in the source; they are usually repeats but may differ in a detail not shown here. Equal values may be shown once.

Assays:
Format in all cases: in vivo
[1] = tested on: Polygonum convolvulus; test: greenhouse pre-emergence treatment, POLCO; conditions: POLCO; for % activity, solo application: Table X1
Summary of the method: (§1)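 Pre-emergence spray of compounds, alone or as combinations formulated as 10% emulsion concentrate in water, directly after sowing in loamy sand (~3.0% humus); pots hooded until rooting, kept at 10-25° C or 20-35° C per species for 2 to 4 weeks. Damage scored 0-100 (100 = no emergence/complete destruction); Colby expected value E=X+Y−(X·Y/100).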

[2] = tested on: Polygonum aviculare; test: greenhouse post-emergence treatment, POLAV; conditions: POLAV; for % activity, solo application: Table X4
Summary of the method: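 Greenhouse; post-emergence spray at 3–15 cm; aqueous EC formulation; 2–4 weeks; 0–100 visual score.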

[3] = tested on: Setaria viridis; test: greenhouse pre-emergence treatment, SETVI; conditions: SETVI
Summary of the method: as §1

[4] = tested on: Papaver rhoeas; test: greenhouse post-emergence treatment, PAPRH; conditions: PAPRH
Summary of the method: (§2)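 Post-emergence greenhouse spray on 3–15 cm plants, sown direct or transplanted a few days before treatment. Scored visually on a 0–100 scale after 2 to 4 weeks; expected additive effect computed by Colby: E=X+Y−(X·Y/100).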

[5] = tested on: Bromus sterilis; test: greenhouse pre-emergence treatment, BROST; conditions: BROST
Summary of the method: as §1

[6] = tested on: Apera spica-venti; test: greenhouse post-emergence treatment, APESV; conditions: APESV, 20 DAT
Summary of the method: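 Seeds sown per species in pots of loamy sand; seedlings either grown in place or transplanted days before treatment. Post-emergence spray of water-based liquor at 3–15 cm height. Injury rated 0–100 over 2 to 4 weeks.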

[7] = tested on: Ambrosia elatior; test: greenhouse pre-emergence treatment, AMBEL; conditions: AMBEL
Summary of the method: as §1

[8] = tested on: Brachiaria decumbens; test: greenhouse pre-emergence treatment, BRADC; conditions: BRADC
Summary of the method: as §1

[9] = tested on: Helianthus annuus; test: greenhouse pre-emergence treatment, HELAN; conditions: HELAN
Summary of the method: as §1

[10] = tested on: Apera spica-venti; test: greenhouse pre-emergence treatment, APESV; conditions: solo, 20 DAT
Summary of the method: as §1

[11] = tested on: Avena fatua; test: greenhouse pre-emergence treatment, AVEFA; conditions: AVEFA
Summary of the method: as §1

[12] = tested on: Digitaria sanguinalis; test: greenhouse pre-emergence treatment, DIGSA; conditions: DIGSA; for % activity, solo application: 62.5 gai/ha
Summary of the method: as §1

[13] = tested on: Galium aparine; test: greenhouse post-emergence treatment, GALAP; conditions: GALAP
Summary of the method: as §2

[14] = Ex. 5 solo, 62.5 gai/ha, 20 DAT
[15] = Table X10, 20 DAT, solo Ex. 5 31.25 gai/ha
[16] = Table X13, 20 DAT, solo Ex. 5 31.25 gai/ha
[17] = Table X13, 20 DAT, solo Ex. 5 62.5 gai/ha
[18] = Ex. 5 solo, 62.5 gai/ha, 21 DAT
[19] = 20 DAT, solo Ex. 5 125 gai/ha (Table X66)
[20] = Table X9, 21 DAT, solo Ex. 5 125 gai/ha
[21] = 20 DAT, solo Ex. 5 31.25 gai/ha
[22] = Table X13, 20 DAT, solo Ex. 5 125 gai/ha

What does the source list for `O=C(O)c1nc(C2CC2)ncc1-c1ccccc1Cl` [Ex. 5]?
% activity, solo application ([1]; 62.5 gai/ha, 20 DAT): 60%; % activity, solo application ([1]; 125 gai/ha, 20 DAT): 80%; % activity [1, 14]: 65%; % activity [1, 15]: 60%; % activity ([1]; Table X10, 20 DAT, solo Ex. 5 125 gai/ha): 80%; % activity [1, 16]: 60%; % activity [1, 17]: 75%; % activity ([1]; Table X13, 20 DAT, solo Ex. 5 250 gai/ha): 90%; % activity ([1]; Table X14, 20 DAT, solo Ex. 5 31.25 gai/ha): 60%; % activity ([1]; solo, 31.25 gai/ha, 20 DAT): 35%; % activity ([1]; solo, 62.5 gai/ha, 21 DAT): 70%; % activity ([1]; solo, 125 gai/ha, 21 DAT): 85%; % activity, solo application ([2]; 125 gai/ha, 20 DAT): 95%; % activity, solo application ([2]; 250 gai/ha, 20 DAT): 95%; % activity [2, 18]: 90%; % activity ([2]; 20 DAT, solo Ex. 5 62.5 gai/ha): 90%; % activity ([2]; 20 DAT, solo Ex. 5 125 gai/ha): 90%; % activity [2, 19]: 90%; % activity, solo application ([3]; 31.25 gai/ha, 20 DAT, Table X6): 0%; % activity, solo application ([3]; 125 gai/ha, 20 DAT, Table X1): 45%; % activity, solo application ([3]; 125 gai/ha, 20 DAT, Table X2): 60%; % activity, solo application ([3]; 125 gai/ha, 20 DAT, Table X6): 60%; % activity, solo application ([3]; 250 gai/ha, 20 DAT, Table X1): 65%; % activity ([3]; Ex. 5 solo, 125 gai/ha, 20 DAT): 50%; % activity ([3]; 20 DAT, solo Ex. 5 62.5 gai/ha): 30%; % activity ([3]; 20 DAT, solo Ex. 5 125 gai/ha): 50%; % activity ([3]; solo Ex. 5 31.25 gai/ha, 20 DAT): 35%; % activity ([3]; solo Ex. 5 125 gai/ha, 20 DAT): 45%; % activity [3, 20]: 50%; % activity [3, 16]: 20%; % activity [3, 17]: 35%; % activity ([3]; solo, 31.25 gai/ha, 20 DAT): 10%; % activity ([3]; solo, 62.5 gai/ha, 21 DAT): 45%; % activity ([3]; solo, 125 gai/ha, 20 DAT): 45%; % activity ([3]; solo, 125 gai/ha, 21 DAT): 60%; % activity ([3]; solo, 250 gai/ha, 21 DAT): 65%; % activity, solo application ([4]; 62.5 gai/ha, 20 DAT, Table X3): 20%; % activity, solo application ([4]; 125 gai/ha, 20 DAT, Table X3): 75%; % activity, solo application ([4]; 125 gai/ha, 20 DAT, Table X4): 5%; % activity, solo application ([4]; 125 gai/ha, 20 DAT, Table X5): 30%; % activity [4, 14]: 25%; % activity [4, 18]: 60%; % activity ([4]; 20 DAT, solo Ex. 5 62.5 gai/ha): 70%; % activity ([4]; 20 DAT, solo Ex. 5 125 gai/ha): 65%; % activity [4, 19]: 65%; % activity ([4]; 21 DAT, solo Ex. 5 125 gai/ha): 60%; % activity ([4]; 21 DAT, solo Ex. 5 250 gai/ha): 80%; % activity ([4]; solo Ex. 5 62.5 gai/ha, 20 DAT): 0%; % activity ([4]; solo Ex. 5 62.5 gai/ha, 21 DAT): 0%; % activity ([4]; solo Ex. 5 125 gai/ha, 21 DAT): 10%; % activity ([4]; solo Ex. 5 250 gai/ha, 20 DAT): 65%; % activity ([4]; solo Ex. 5 250 gai/ha, 21 DAT): 65%; % activity ([4]; solo, 250 gai/ha, 20 DAT): 70% and 75%; % activity, solo application ([5]; 62.5 gai/ha, 20 DAT, Table X1): 65%; % activity, solo application ([5]; 125 gai/ha, 20 DAT, Table X1): 80%; % activity, solo application ([5]; 125 gai/ha, 20 DAT, Table X6): 65%; % activity [5, 21]: 5%; % activity ([5]; solo, 62.5 gai/ha, 20 DAT): 45%; % activity ([5]; solo, 125 gai/ha, 21 DAT): 75%; % activity ([6]; solo Ex. 5 62.5 gai/ha): 75%; % activity ([6]; solo, 62.5 gai/ha): 70%; % activity ([6]; solo, 125 gai/ha): 80%; % activity ([6]; solo, 250 gai/ha): 85% and 90%; % activity, solo application ([7]; 31.25 gai/ha, 20 DAT, Table X1): 30%; % activity, solo application ([7]; 62.5 gai/ha, 20 DAT, Table X1): 45%; % activity, solo application ([7]; 62.5 gai/ha, 20 DAT, Table X2): 0%; % activity, solo application ([7]; 62.5 gai/ha, 20 DAT, Table X6): 0%; % activity, solo application ([7]; 250 gai/ha, 20 DAT, Table X1): 98%; % activity [7, 21]: 10%; % activity ([7]; 20 DAT, solo Ex. 5 31.25 gai/ha (Table X70)): 20%; % activity ([7]; 20 DAT, solo Ex. 5 62.5 gai/ha): 70%; % activity ([7]; 20 DAT, solo Ex. 5 125 gai/ha): 85%; % activity [7, 14]: 70%; % activity [7, 15]: 30%; % activity ([7]; Table X10, 20 DAT, solo Ex. 5 62.5 gai/ha): 45%; % activity ([7]; Table X11, 20 DAT, solo Ex. 5 62.5 gai/ha): 45%; % activity ([7]; solo, 62.5 gai/ha, 20 DAT): 70%; % activity ([7]; solo, 125 gai/ha, 21 DAT): 70%; % activity, solo application ([8]; 62.5 gai/ha, 20 DAT, Table X2): 80%; % activity, solo application ([8]; 125 gai/ha, 20 DAT, Table X6): 95%; % activity [8, 21]: 20%; % activity ([8]; 20 DAT, solo Ex. 5 62.5 gai/ha): 60%; % activity ([8]; 20 DAT, solo Ex. 5 125 gai/ha): 70%; % activity [8, 14]: 60%; % activity ([8]; Ex. 5 solo, 125 gai/ha, 20 DAT): 70%; % activity [8, 16]: 85%; % activity ([8]; solo, 31.25 gai/ha, 20 DAT): 55%; % activity ([8]; solo, 62.5 gai/ha, 20 DAT): 85%; % activity, solo application ([9]; 31.25 gai/ha, 20 DAT, Table X6): 0%; % activity, solo application ([9]; 62.5 gai/ha, 20 DAT, Table X1): 35%; % activity, solo application ([9]; 125 gai/ha, 20 DAT, Table X2): 40%; % activity, solo application ([9]; 125 gai/ha, 20 DAT, Table X6): 40%; % activity ([9]; Ex. 5 solo, 125 gai/ha, 20 DAT): 60%; % activity [9, 21]: 0%; % activity ([9]; 20 DAT, solo Ex. 5 62.5 gai/ha): 0%; % activity ([9]; solo, 31.25 gai/ha, 20 DAT): 0%; % activity ([9]; solo, 62.5 gai/ha, 20 DAT): 0%; % activity ([9]; solo, 125 gai/ha, 20 DAT): 0%; % activity ([9]; solo, 125 gai/ha, 21 DAT): 50%; % activity ([9]; solo, 250 gai/ha, 21 DAT): 80%; % activity ([10]; 31.25 gai/ha): 75%; % activity ([10]; 125 gai/ha): 80%; % activity, solo application ([11]; 250 gai/ha, 20 DAT, Table X1): 90%; % activity ([11]; 20 DAT, solo Ex. 5 62.5 gai/ha): 75%; % activity ([11]; solo Ex. 5 125 gai/ha, 20 DAT): 90%; % activity [11, 14]: 75%; % activity ([11]; Ex. 5 solo, 125 gai/ha, 20 DAT): 90%; % activity ([11]; Table X9, 21 DAT, solo Ex. 5 250 gai/ha): 90%; % activity [11, 16]: 65%; % activity [11, 17]: 80%; % activity [11, 22]: 85%; % activity, solo application ([12]; 20 DAT, Table X2): 65%; % activity, solo application ([12]; 20 DAT, Table X6): 65%; % activity [12, 21]: 40%; % activity [12, 20]: 90%; % activity [12, 22]: 90%; % activity ([12]; solo, 31.25 gai/ha, 20 DAT): 65%; % activity ([12]; solo, 125 gai/ha, 21 DAT): 60%; % activity ([12]; solo, 250 gai/ha, 21 DAT): 65%; % activity, solo application ([13]; 125 gai/ha, 20 DAT, Table X4): 0%; % activity, solo application ([13]; 125 gai/ha, 20 DAT, Table X5): 0%; % activity, solo application ([13]; 250 gai/ha, 20 DAT, Table X4): 30%; % activity, solo application ([13]; 250 gai/ha, 20 DAT, Table X5): 0%; % activity ([13]; Ex. 5 solo, 31.25 gai/ha, 21 DAT): 10%; % activity [13, 14]: 0%; % activity ([13]; Ex. 5 solo, 250 gai/ha, 21 DAT): 25%; % activity ([13]; solo Ex. 5 62.5 gai/ha, 20 DAT): 0%; % activity ([13]; solo Ex. 5 125 gai/ha, 20 DAT): 0%; % activity ([13]; solo Ex. 5 125 gai/ha, 21 DAT): 0%; % activity ([13]; Table X8, 20 DAT, solo Ex. 5 250 gai/ha): 20%; % activity ([13]; Table X12, 20 DAT, solo Ex. 5 62.5 gai/ha): 0%; % activity ([13]; Table X12, 20 DAT, solo Ex. 5 125 gai/ha): 0%; % activity ([13]; solo, 62.5 gai/ha, 20 DAT): 0%; % activity ([13]; solo, 125 gai/ha, 20 DAT): 0%; % activity ([13]; solo, 250 gai/ha, 20 DAT): 30%
